We go through 15 compounds from patent US10703756B2, “Pyrrolo[2,3-D]pyrimidinyl, pyrrolo[2,3-B]pyrazinyl, pyrrolo[2,3-B]pyridinyl acrylamides and epoxides thereof” (Pfizer Inc., priority 2015, dated 2020).

The target of data set [1] is T1, JAK3 enzyme (Homo sapiens, UniProt P52333).
T1 sequence (P52333 1-1124): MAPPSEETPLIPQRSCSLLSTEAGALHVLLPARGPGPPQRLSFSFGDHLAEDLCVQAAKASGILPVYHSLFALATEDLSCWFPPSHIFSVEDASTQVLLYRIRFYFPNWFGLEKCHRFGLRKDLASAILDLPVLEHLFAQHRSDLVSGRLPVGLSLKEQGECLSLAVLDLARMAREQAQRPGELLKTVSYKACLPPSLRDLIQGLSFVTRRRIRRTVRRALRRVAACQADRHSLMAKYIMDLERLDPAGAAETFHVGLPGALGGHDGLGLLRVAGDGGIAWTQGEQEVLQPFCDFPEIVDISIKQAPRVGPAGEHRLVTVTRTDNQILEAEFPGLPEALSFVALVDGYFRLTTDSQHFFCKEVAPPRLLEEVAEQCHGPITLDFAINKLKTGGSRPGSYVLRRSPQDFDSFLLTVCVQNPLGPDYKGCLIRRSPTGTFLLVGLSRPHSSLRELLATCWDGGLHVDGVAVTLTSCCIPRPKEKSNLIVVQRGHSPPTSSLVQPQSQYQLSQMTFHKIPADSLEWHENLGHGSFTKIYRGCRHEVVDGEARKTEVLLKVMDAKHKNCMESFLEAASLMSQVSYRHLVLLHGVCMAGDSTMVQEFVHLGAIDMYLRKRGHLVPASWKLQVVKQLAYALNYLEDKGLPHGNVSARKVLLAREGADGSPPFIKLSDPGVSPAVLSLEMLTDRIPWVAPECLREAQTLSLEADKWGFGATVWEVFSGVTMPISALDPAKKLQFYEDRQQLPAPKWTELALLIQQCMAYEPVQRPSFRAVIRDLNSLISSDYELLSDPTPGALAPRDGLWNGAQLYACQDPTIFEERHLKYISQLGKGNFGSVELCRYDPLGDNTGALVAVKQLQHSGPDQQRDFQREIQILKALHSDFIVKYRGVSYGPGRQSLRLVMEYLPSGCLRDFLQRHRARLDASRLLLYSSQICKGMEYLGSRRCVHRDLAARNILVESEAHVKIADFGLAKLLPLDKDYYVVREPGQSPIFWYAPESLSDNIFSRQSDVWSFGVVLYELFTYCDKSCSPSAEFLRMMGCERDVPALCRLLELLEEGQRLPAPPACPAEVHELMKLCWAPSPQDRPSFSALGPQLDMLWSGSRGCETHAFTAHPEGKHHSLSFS
Briefly: JAK Caliper Enzyme Assay at 4 μM ATP. In kind it is biochemical. The essentials:
(§1)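 11-pt ½-log cpd titration in DMSO (top 600 μM, pre-assay); enzyme conc/incubation adjusted per prep → 20-30% peptide phosphorylation; phospho vs non-phospho peptide read by chip-based electrophoretic separation.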

Data set [2] concerns the target T1, JAK3 enzyme. Put plainly: JAK Caliper Enzyme Assay at 1 mM ATP. In kind it is biochemical. The essentials:
as §1

Data set [3] relates to IL-15 induced STAT5 phosphorylation in human whole blood lymphocytes. Briefly: HWB IL-15 Induced STAT5 Phosphorylation Assay. The data set is classed as cell-based. To be noted: Lymphocyte, IL-15 final 50 ng/ml, read-out: HWB_IL15 pSTAT5 IC50. As to the method:
HWB IL-15 Induced STAT5 Phosphorylation Assay
After serial dilution of the test compounds 1:2 in DMSO at desired concentration (500× of final), the compounds were further diluted in PBS (by adding 4 μL compound/DMSO in 96 μL PBS, [DMSO]=4%, 20× final). To 96-well polypropylene plates were added 90 μl HWB (heparin treated Human Whole Blood)/well, followed by 5 μl/well 4% DMSO in D-PBS or various concentrations of 20× inhibitor in 4% DMSO in D-PBS (w/o Ca^+2 or Mg^+2) to give 1× in 0.2% DMSO. After mixing and incubating for 45 minutes at 37° C., 5 μl D-PBS (unstimulated control) or 20× stocks of 5 μl human IL-15 (final concentration is 50 ng/ml) were added, and mixed three times. After incubating 15 minutes at 37° C., 1× Lyse/Fix Buffer (BD Phosflow 5× Lyse/Fix Buffer) was added to all wells at 1000 μl/well, then incubated for 20 minutes at 37° C. and spun 5 mins at 1200 rpm. After washing in 1000 μl FACS buffer 1× and spinning for 5 mins at 1200 rpm, 400 μl ice cold Perm Buffer III were added to each well. After mixing gently (1-2×) and incubating on ice for 30 minutes, spinning for 5 mins at 1200 rpm without interruption, and washing 1× in cold […] FACS buffer (D-PBS containing 0.1% BSA and 0.1% sodium azide) 250 μl/well of the desired AlexaFluor647-conjugated anti-phospho STATS antibody at 1:125 dilution in FACS buffer was added. Following incubating at 4° C. over night, all the samples were transferred to 96-well polypropylene U-bottom plate, and checked by flow cytometry gated on total lymphocytes.

For data set [4], the system named is IL-15 induced P-STAT5 in human PBMC. Put plainly: PBMC IL-15 Induced P-STAT5. The data set is classed as cell-based. Particulars: human PBMC, IL-15 final 41 ng/mL; read-out: PBMC IL15_pSTAT5_IC50. The essentials: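 Thawed human PBMC, rested in human plasma, were preincubated 15 min at 37 °C with compound (0.2% DMSO), then stimulated 15 min with IL-15 at 41 ng/mL final. After paraformaldehyde fixation and methanol permeabilisation, Alexa Fluor 647 anti-STAT5 staining overnight at 4 °C was analysed by flow cytometry on total lymphocytes.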

Data set [5] in a line: Stability of JAK3 Covalent Inhibitors in Human Whole Blood. The data set is classed as in vitro ADME. Particulars: 1 μM test compound, 37° C., 180 min incubation; for half-life at 1 μM: both sexes, read-out: Human blood stability t1/2. The essentials:
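Compound at 1 μM final incubated in duplicate at 37° C for 180 min in fresh K2-EDTA whole blood […]. Samples quenched in acetonitrile with internal standard; LC-MS/MS peak area ratios gave % parent remaining over time.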

In the case of `C=CC(=O)N1CCN(c2cnc3[nH]cc(C(=O)NC4CCCOC4)c3n2)CC1(C)C` (racemic) [Example 149, Racemic-2-(4-acryloyl-3,3-dimethylpiperazin-1-yl)-N-(tetrahydro-2H-pyran-3-yl)-5H-pyrrolo[2,3-b]pyrazine-7-carboxamide], the IC50 in data set [1] was determined as 0.565 nM; in data set [2] it was 134 nM; in data set [3], 4240 nM; in data set [4], 163 nM.
Take `C=CC(=O)N1CC[C@@H](Nc2cnc3[nH]cc(C(=O)NCC(C)CC(F)(F)F)c3n2)[C@@H](OC)C1` (mixture of isomers) [Example 269, Racemic-2-{[(3S,4R)-1-acryloyl-3-methoxypiperidin-4-yl]amino}-N-(4,4,4-trifluoro-2-methylbutyl)-5H-pyrrolo[2,3-b]pyrazine-7-carboxamide]: the IC50 in data set [1] is 0.888 nM; in data set [2] it was 82 nM; in data set [3], 1390 nM; in data set [4] it was 220 nM.
For the compound `C=CC(=O)N1CCN(c2cnc3[nH]cc(C(=O)NCC(C)CC(F)(F)F)c3n2)CC1` (racemic) [Example 279, Racemic-2-(4-acryloylpiperazin-1-yl)-N-(4,4,4-trifluoro-2-methylbutyl)-5H-pyrrolo[2,3-b]pyrazine-7-carboxamide], the IC50 in data set [1] came to 0.343 nM; in data set [2] it was 31 nM; in data set [3], 765 nM; in data set [4], 107 nM.
Regarding `C=CC(=O)N1CCN(c2cnc3[nH]cc(C(=O)NC4CCCC4)c3n2)CC1` (racemic) [Example 292, Racemic-2-(4-acryloylpiperazin-1-yl)-N-cyclopentyl-5H-pyrrolo[2,3-b]pyrazine-7-carboxamide], the IC50 came out at 0.315 nM in data set [1], 17 nM in data set [2], 841 nM in data set [3] and 27.7 nM in data set [4].
Consider `C=CC(=O)N1CCC[C@H](Oc2cnc3[nH]cc(C(=O)N[C@@H](C)COC)c3n2)C1` [Example 50, 2-{[(3S)-1-acryloylpiperidin-3-yl]oxy}-N-[(2S)-1-methoxypropan-2-yl]-5H-pyrrolo[2,3-b]pyrazine-7-carboxamide], for which the IC50 in data set [1] is 1.09 nM; in data set [2], 91 nM; in data set [4] it was 431 nM. In addition, the half-life at 1 μM in data set [5] was above 6 h.
In the case of `C=CC(=O)N1CC[C@H](Oc2cnc3[nH]cc(C(=O)N[C@@H](C)COC)c3n2)C1` [Example 52, 2-{[(3S)-1-acryloylpyrrolidin-3-yl]oxy}-N-[(2S)-1-methoxypropan-2-yl]-5H-pyrrolo[2,3-b]pyrazine-7-carboxamide], the IC50 in data set [1] was 1.02 nM; in data set [2], 153 nM; in data set [4], 627 nM. The half-life at 1 μM in data set [5] was 2.78 h.
Turning to `C=CC(=O)N1CCC(N(C)c2cnc3[nH]cc(C(=O)NCC)c3n2)CC1` [Example 60, 2-[(1-acryloylpiperidin-4-yl)(methyl)amino]-N-ethyl-5H-pyrrolo[2,3-b]pyrazine-7-carboxamide], the figures for the IC50 in data set [1], in data set [2] and in data set [4] were 0.448 nM, 130 nM and 379 nM, respectively. For the same compound, the half-life at 1 μM in data set [5] came out at 2.97 h.
In the case of `C=CC(=O)N1CC[C@@H](Oc2cnc3[nH]cc(C(=O)NCC)c3n2)C1` [Example 87, (R)-2-[(1-acryloylpyrrolidin-3-yl)oxy]-N-ethyl-5H-pyrrolo[2,3-b]pyrazine-7-carboxamide], the IC50 in data set [1] was 14 nM; in data set [2] it was 1320 nM; in data set [4], 6490 nM. Also, the half-life at 1 μM in data set [5] is above 6 h.
Take `C=CC(=O)N1C[C@@H](O)C[C@@H](Nc2ncnc3[nH]cc(C#N)c23)C1` [Example 113, 4-{[(3R,5S)-1-Acryloyl-5-hydroxypiperidin-3-yl]amino}-7H-pyrrolo[2,3-d]pyrimidine-5-carbonitrile]: the IC50 in data set [1] turned out to be 2.4 nM; in data set [2] it was 589 nM; in data set [4], 1940 nM. For the same compound, the half-life at 1 μM in data set [5] was above 6 h.
The like results for `C=CC(=O)N1CCC(Oc2cnc3[nH]cc(-c4ncnn4C(C)C)c3n2)CC1` [Example 123] were, in that order, 7.65 nM, 1100 nM, 3040 nM and 2.45 h.
`C=CC(=O)N1CCC(Oc2cnc3[nH]cc(-c4ncn(C(C)C)n4)c3n2)CC1` [Example 124, 1-[4-({7-[1-(Propan-2-yl)-1H-1,2,4-triazol-3-yl]-5H-pyrrolo[2,3-b]pyrazin-2-yl}oxy)piperidin-1-yl]prop-2-en-1-one]: the IC50 in data set [1] was 5.89 nM; in data set [2], 1100 nM; in data set [4] it was 2430 nM. The half-life at 1 μM in data set [5] worked out at 4.86 h.
On to `C=CC(=O)N1C[C@H](Nc2ncnc3[nH]ccc23)C[C@H](O)[C@@H]1C` [Example 133], for which the IC50 came out at 1.11 nM in data set [1], 76 nM in data set [2] and 302 nM in data set [4]. Also, in data set [5], the “Human blood stability t1/2” value worked out at 3.97 h.
In the case of `C=CC(=O)N1CCN(c2cnc3[nH]cc(C(=O)N[C@@H]4COC[C@@H]4C4CC4)c3n2)CC1(C)C` [Example 139, 2-(4-acryloyl-3,3-dimethylpiperazin-1-yl)-N-[(3S,4R)-4-cyclopropyltetrahydrofuran-3-yl]-5H-pyrrolo[2,3-b]pyrazine-7-carboxamide], the IC50 in data set [1] was 1.57 nM; in data set [2], 109 nM; in data set [4], 711 nM. Moreover, the half-life at 1 μM in data set [5] is above 6 h.
With `C=CC(=O)N1CC[C@H](Nc2cnc3[nH]cc(C(=O)NCC(F)(F)F)c3n2)C1` [Example 231, 2-{[(3S)-1-acryloylpyrrolidin-3-yl]amino}-N-(2,2,2-trifluoroethyl)-5H-pyrrolo[2,3-b]pyrazine-7-carboxamide], the IC50 in data set [1] was determined as 0.322 nM; in data set [2], 85 nM; in data set [4], 353 nM. Moreover, the half-life at 1 μM in data set [5] was found to be 5.35 h.
For `C=CC(=O)N1CC[C@H](Nc2cnc3[nH]cc(C(=O)NCCC(F)(F)F)c3n2)C1` [Example 235, 2-{[(3S)-1-acryloylpyrrolidin-3-yl]amino}-N-(3,3,3-trifluoropropyl)-5H-pyrrolo[2,3-b]pyrazine-7-carboxamide], the figures for the IC50 in data set [1], in data set [2] and in data set [4] were 0.304 nM, 37 nM and 208 nM, respectively. Further, the half-life at 1 μM in data set [5] came out at 5.78 h.
